{
  "source": "paper PMC6573034",
  "about": "(Nature Communications, 2019)",
  "key": {"SfMCT": {"target": "T1, SfMCT (Syntrophobacter fumaroxidans, UniProt A0LNN5)", "T1 construct": "expressed in transfected cells; host or cells: E. coli JA202 (MC4100 glcA::cat lldP::kan), plasmid pEXT20-SfMCT-3C-10His", "T1 sequence (A0LNN5 1-412)": "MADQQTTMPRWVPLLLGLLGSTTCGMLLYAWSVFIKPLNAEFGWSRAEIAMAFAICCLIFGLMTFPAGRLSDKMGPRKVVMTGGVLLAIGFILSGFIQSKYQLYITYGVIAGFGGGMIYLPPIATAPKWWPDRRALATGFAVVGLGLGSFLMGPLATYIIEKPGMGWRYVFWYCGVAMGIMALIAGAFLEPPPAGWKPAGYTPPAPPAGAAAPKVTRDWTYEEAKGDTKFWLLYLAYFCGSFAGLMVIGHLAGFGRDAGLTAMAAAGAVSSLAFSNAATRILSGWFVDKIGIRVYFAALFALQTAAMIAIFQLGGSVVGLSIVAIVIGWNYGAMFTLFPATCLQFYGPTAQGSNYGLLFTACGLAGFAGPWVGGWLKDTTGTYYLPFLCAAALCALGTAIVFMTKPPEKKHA", "assay": "Micro pH electrode-based transport assay, SfMCT-expressing E. coli JA202", "assay_type": "cell-based", "conditions": "10 mM compound (pH 6.5) added to bacterial suspension pH 6.7", "experimental": "(§1) A measuring set up as previously reported[18] was used for micro pH electrode-based transport measurements. SfMCT was expressed in E. coli JA202 (MC4100 glcA::cat lldP::kan)[15] as described for uptake experiments. After expression, bacteria were pelleted (5,200 × g, 10 min, room temperature), washed twice in assay solution (250 mM KCl, 1 mM MgSO4, 2 mM CaCl2; 5,200 × g, 10 min, room temperature) and finally resuspended in assay solution to a bacterial density of OD600 15. Compounds that were assayed for proton-coupled transport were dissolved in assay solution and the pH was adjusted to 6.5. 800 µl of bacteria suspension were transferred into a 2 ml reaction tube (Eppendorf) and the pH value of the bacterial suspension (extracellular medium) was measured using a micro pH electrode with integrated temperature sensor (InLab Micro Pro, Mettler Toledo) under constant stirring. The pH of the bacterial suspension was adjusted to pH 6.7 using potassium hydroxide and hydrochloric acid. The SevenCompact pH-meter (Mettler Toledo), together with LabX direct pH 2.3 software (Mettler Toledo), were used for automatic recording in 15 s intervals. Measurements were initiated by adding 10 mM of the corresponding compound to the bacterial suspension. All experiments were performed at 24 °C."}, "[1]": {"tested_on": "vector-transformed E. coli JA202", "assay": "Micro pH electrode-based transport assay, vector-transformed E. coli JA202", "assay_type": "cell-based", "conditions": "10 mM compound (pH 6.5) added to vector-transformed bacterial suspension pH 6.7", "experimental": "as §1"}, "MCT3 (SLC16A8)": {"tested_on": "MCT3 (SLC16A8)", "conditions": "MCT3, L-lactate; cited from earlier work"}},
  "data": [
    {"smiles": "C[C@H](O)C(=O)O", "note": "[L-lactate]", "values": [
      {"measurement": "proton-coupled transport, change of extracellular pH (in words)", "setting": "SfMCT", "value": "immediate pH increase"},
      {"measurement": "proton-coupled transport, change of extracellular pH (in words)", "setting": "[1]", "value": "significantly slower and lower pH increase"},
      {"measurement": "Km", "setting": "MCT3 (SLC16A8)", "value": "~6", "unit": "mM"}
    ]}
  ]
}
